What all share (assay): relative viability (nuclei count vs DMSO), 5 days (fraction); higher = more cells survive
Compound in the assay “Mirin + Crizotinib”: N=C1NC(=O)/C(=C/c2ccc(O)cc2)S1 [Mirin] + C[C@@H](Oc1cc(-c2cnn(C3CCNCC3)c2)cnc1N)c1c(Cl)ccc(F)c1Cl [Crizotinib] (partner 1 µM)
Summed up:
(§1)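 One day after seeding in 1536-well plates, lung cancer cell lines were dosed by pin tool. Dosing was either single-drug or a fixed anchor-drug dose plus five library-drug doses (not always all listed) in √10 steps. After 5 days, nuclei were stained in one fix-and-stain step and counted on 4× images, and relative viability is the nuclei count of treated wells over that of vehicle wells, given as the median of duplicate plates.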

Compound in the assay “Mirin + Lapatinib”: N=C1NC(=O)/C(=C/c2ccc(O)cc2)S1 [Mirin] + CS(=O)(=O)CCNCc1ccc(-c2ccc3ncnc(Nc4ccc(OCc5cccc(F)c5)c(Cl)c4)c3c2)o1 [Lapatinib] (partner 2 µM)
Summed up: as §1

Compound in assay [1]: CCC1=CN=CN=C1N2CCN(CC2)CC3=NC4=C(N3)C=C(C=C4)C(F)(F)F + COc1cc2c(Oc3ccc(NC(=O)C4(C(=O)Nc5ccc(F)cc5)CC4)cc3F)ccnc2cc1OCCCN1CCOCC1 [Foretinib] (partner 0.25 µM)
Summed up:
as §1

Compound in assay [2]: CCn1c(-c2nonc2N)nc2cnc(Oc3cccc(NC(=O)c4ccc(OCCN5CCOCC5)cc4)c3)cc21 + N=C(N)NC(=N)NCCc1ccccc1 [Phenformin] (partner 250 µM)
Summed up:
as §1

On to UMC-11, for which the relative viability was 0.499 in the assay with Mirin + Crizotinib (first compound 0.25 µM); 0.578 with Mirin + Crizotinib (first compound 0.7906 µM); 0.529 with Mirin + Crizotinib (first compound 2.5 µM); 0.496 in the assay with Mirin + Crizotinib (first compound 7.906 µM); 0.236 in the assay with Mirin + Crizotinib (first compound 25 µM); 0.958 with Mirin + Lapatinib (first compound 0.25 µM). The relative viability was determined as 0.985 in the assay with Mirin + Lapatinib (first compound 2.5 µM); 0.548 in the assay with Mirin + Lapatinib (first compound 7.906 µM); 0.684 with Mirin + Lapatinib (first compound 25 µM); 0.997 in assay [1] (first compound 0.04 µM); 0.932 in assay [1] (first compound 0.1265 µM); 1 in assay [1] (first compound 0.4 µM). Besides, the relative viability came out at 0.898 in assay [1] (first compound 1.265 µM); 0.96 in assay [1] (first compound 4 µM); 0.304 in assay [2] (first compound 0.04 µM); 0.25 in assay [2] (first compound 0.1265 µM); 0.198 in assay [2] (first compound 0.4 µM); 0.225 in assay [2] (first compound 1.265 µM). Moreover, the relative viability in assay [2] (first compound 4 µM) came out at 0.129.

The record behind these values is the supplement of paper PMC10307832.
